Like-named read-outs stand apart in the source and are kept apart here.
What was measured:
Caco-2 cells [1] = details: cited from earlier work
[2] = especially under light exposure; cited from earlier work
Caco-2 cell monolayer = type: in vitro ADME, human; details: for Pa-b as percent of control: pH 6.8, 37 °C
[3] = Stability of transport study solutions in HBSS at 37 °C; type: physicochemical; details: HBSS pH 6.8, 37 °C water bath, 0, 1, 2, 4 and 6 hour, UPLC-MS/MS
Caco-2 cells [4] = experiment: Marker compounds hydrolysis and metabolism in Caco-2 transport study; type: in vitro ADME, human; details: Caco-2 transport studies; for glucuronidation and sulfation metabolites: UPLC-MS/MS, of marker compounds and their aglycone; for hydrolysis to aglycone: aglycone by UPLC-MS/MS
[5] = type: in vitro ADME, human; details: human, Caco-2, pH 6.8, efflux ratio (Pba/Pab), vectorial transport ratio
MRP2 = MRP2 (Homo sapiens, UniProt Q92887); experiment: Caco-2 transport of isoquercitrin in the presence of MRP2 inhibitor MK 571; type: in vitro ADME
Sequence of MRP2 (Q92887 whole entry): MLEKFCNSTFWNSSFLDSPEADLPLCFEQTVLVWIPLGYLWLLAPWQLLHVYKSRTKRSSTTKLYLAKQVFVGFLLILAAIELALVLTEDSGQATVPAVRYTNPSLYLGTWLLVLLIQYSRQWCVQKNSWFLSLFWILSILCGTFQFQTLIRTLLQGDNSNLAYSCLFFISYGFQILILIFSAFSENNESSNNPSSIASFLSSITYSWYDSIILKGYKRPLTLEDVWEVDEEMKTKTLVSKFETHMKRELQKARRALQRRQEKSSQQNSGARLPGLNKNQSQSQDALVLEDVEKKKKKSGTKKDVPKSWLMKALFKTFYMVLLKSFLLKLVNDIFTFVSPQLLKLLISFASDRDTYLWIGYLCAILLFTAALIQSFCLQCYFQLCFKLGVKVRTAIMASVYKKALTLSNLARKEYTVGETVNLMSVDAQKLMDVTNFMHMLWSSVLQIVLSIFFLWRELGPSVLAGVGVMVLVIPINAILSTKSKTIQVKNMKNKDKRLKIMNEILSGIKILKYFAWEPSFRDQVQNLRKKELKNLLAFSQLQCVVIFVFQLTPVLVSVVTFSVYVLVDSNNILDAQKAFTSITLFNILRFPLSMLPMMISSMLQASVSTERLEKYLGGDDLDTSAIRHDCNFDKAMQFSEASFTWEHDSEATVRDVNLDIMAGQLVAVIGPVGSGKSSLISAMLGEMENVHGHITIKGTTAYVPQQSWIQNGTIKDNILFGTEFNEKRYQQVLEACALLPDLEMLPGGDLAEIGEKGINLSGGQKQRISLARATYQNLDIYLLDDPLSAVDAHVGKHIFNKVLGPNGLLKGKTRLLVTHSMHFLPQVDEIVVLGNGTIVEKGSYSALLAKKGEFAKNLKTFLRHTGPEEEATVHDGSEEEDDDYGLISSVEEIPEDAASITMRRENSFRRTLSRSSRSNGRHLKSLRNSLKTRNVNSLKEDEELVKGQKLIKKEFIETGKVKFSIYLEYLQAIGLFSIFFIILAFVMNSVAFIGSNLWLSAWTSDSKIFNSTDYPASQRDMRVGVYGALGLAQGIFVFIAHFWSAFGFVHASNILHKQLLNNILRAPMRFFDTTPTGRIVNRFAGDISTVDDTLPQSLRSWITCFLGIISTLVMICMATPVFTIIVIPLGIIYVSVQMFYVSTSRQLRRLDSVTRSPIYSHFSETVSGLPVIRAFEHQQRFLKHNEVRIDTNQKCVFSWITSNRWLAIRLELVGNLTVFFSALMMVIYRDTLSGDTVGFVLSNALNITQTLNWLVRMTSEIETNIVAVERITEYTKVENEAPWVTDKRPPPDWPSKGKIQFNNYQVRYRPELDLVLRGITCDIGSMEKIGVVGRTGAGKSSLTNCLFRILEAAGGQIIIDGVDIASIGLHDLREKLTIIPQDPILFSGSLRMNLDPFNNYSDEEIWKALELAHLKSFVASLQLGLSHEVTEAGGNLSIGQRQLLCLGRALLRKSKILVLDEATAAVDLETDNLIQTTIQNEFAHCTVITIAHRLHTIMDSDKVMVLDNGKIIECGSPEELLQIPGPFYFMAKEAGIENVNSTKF

SGLT1 = experiment: Caco-2 transport of isoquercitrin in the presence of phloridzin; type: in vitro ADME, human; details: pure isoquercitrin 10 μM, 50 μM phloridzin
[6] = in product 1 matrix, control pure compound 10 μM
[7] = in product 2 matrix, control pure compound 10 μM
[8] = isoquercitrin in product 2, 50 μM MK 571
[9] = isoquercitrin in product 4, 50 μM MK 571
[10] = pure isoquercitrin 10 μM, 50 μM MK 571 at apical side

## COc1ccc([C@@H]2CC(=O)c3c(O)cc(O[C@@H]4O[C@H](CO[C@@H]5O[C@@H](C)[C@H](O)[C@@H](O)[C@H]5O)[C@@H](O)[C@H](O)[C@H]4O)cc3O2)cc1O [hesperidin]
Caco-2 cells [1]; HPLC-UV, 120 min transport
  permeability (words): not permeable

## Cc1cc(O)c2c(=O)c3c(O)cc(O)c4c5c(O)cc(O)c6c(=O)c7c(O)cc(C)c8c1c2c(c34)c(c78)c65 [hypericin]
[2]
  stability in aqueous solutions: highly unstable

## O=c1c(O[C@@H]2O[C@H](CO)[C@H](O)[C@H](O)[C@H]2O)c(-c2ccc(O)c(O)c2)oc2cc(O)cc(O)c12 [hyperoside]
Caco-2 cell monolayer; [6]
  Pa-b compared with control: not altered
Caco-2 cell monolayer; [7]
  Pa-b as percent of control: 54%
Caco-2 cell monolayer; in product 4 matrix, control pure compound 10 μM
  Pa-b as percent of control: 46%
[3]
  stability in experimental solutions (relative peak area as a function of time): stable
Caco-2 cells [4]
  glucuronidation and sulfation metabolites: not detected
  hydrolysis to aglycone: not hydrolyzed

## O=c1c(O[C@@H]2O[C@H](CO)[C@@H](O)[C@H](O)[C@H]2O)c(-c2ccc(O)c(O)c2)oc2cc(O)cc(O)c12 [isoquercitrin]
[5]
  efflux ratio at 4 h, 10 µM: 7.13
Caco-2 cell monolayer; [6]
  Pb-a as percent of control: 78%
Caco-2 cell monolayer; [7]
  Pb-a as percent of control: 42%
MRP2; human, Caco-2, with MK 571, 50 µM
  efflux ratio at 4 h: 0.4
MRP2; [8]
  Pa-b change with MK 571: didn't increase significantly
  Pb-a reduction with MK 571: 1.8 times
MRP2; [9]
  Pa-b increase with MK 571: 2.9 times
  Pb-a change with MK 571: didn't change
  Pb-a versus Pa-b: not statistically different
MRP2; pure isoquercitrin 10 μM, 50 μM MK 571
  vectorial transport ratio: 1
MRP2; [10]
  Pa-b increase compared with control: 3.2 times
  Pb-a decrease compared with control: 5.2 times
SGLT1
  Pa-b increase compared to the control: 2.9 times
  difference between Pa-b and Pb-a: diminished
[3]
  stability in experimental solutions (relative peak area as a function of time): stable
Caco-2 cells [4]
  glucuronidation and sulfation metabolites: not detected
  hydrolysis to aglycone: not hydrolyzed

## C[C@H]1O[C@H](OC[C@H]2O[C@@H](Oc3c(-c4ccc(O)cc4)oc4cc(O)cc(O)c4c3=O)[C@H](O)[C@@H](O)[C@@H]2O)[C@@H](O)[C@@H](O)[C@@H]1O [kaempferol-3-rutinoside]
Caco-2 cell monolayer; Caco-2, pH 6.8
  efflux ratio (Pba/Pab): 3.5
Caco-2 cell monolayer; human, Caco-2, 4 h, 50 µM, pH 6.8
  vectorial transport ratio: 0.16

## C[C@@H]1O[C@@H](O[C@H]2[C@H](Oc3cc(O)c4c(c3)O[C@H](c3ccc(O)cc3)CC4=O)O[C@H](CO)[C@@H](O)[C@@H]2O)[C@H](O)[C@H](O)[C@H]1O [naringin]
Caco-2 cells [1]; Caco-2
  permeability: 0.08 ×10⁻⁶ cm/s
  permeability (words): not permeable

## C[C@@H]1O[C@@H](OC[C@H]2O[C@@H](Oc3c(-c4ccc(O)c(O)c4)oc4cc(O)cc(O)c4c3=O)[C@H](O)[C@@H](O)[C@@H]2O)[C@H](O)[C@H](O)[C@H]1O [rutin]
Caco-2 cells [4]
  glucuronidation and sulfation metabolites: not detected
  hydrolysis to aglycone: not hydrolyzed
